We go through 3 compounds from patent US20180284095A1, “BIOMARKERS ASSOCIATED WITH LSD1 INHIBITORS AND USES THEREOF” (Oryzon Genomics, S.A., priority 2015, published 2018).

The term IC50 denotes the midpoint of a concentration-inhibition curve.

The target of data set [1] is T1, Human recombinant monoamine oxidase MAO-B (Homo sapiens, UniProt P27338).
T1 construct: purchased Sigma Aldrich
T1 sequence (P27338 1-520): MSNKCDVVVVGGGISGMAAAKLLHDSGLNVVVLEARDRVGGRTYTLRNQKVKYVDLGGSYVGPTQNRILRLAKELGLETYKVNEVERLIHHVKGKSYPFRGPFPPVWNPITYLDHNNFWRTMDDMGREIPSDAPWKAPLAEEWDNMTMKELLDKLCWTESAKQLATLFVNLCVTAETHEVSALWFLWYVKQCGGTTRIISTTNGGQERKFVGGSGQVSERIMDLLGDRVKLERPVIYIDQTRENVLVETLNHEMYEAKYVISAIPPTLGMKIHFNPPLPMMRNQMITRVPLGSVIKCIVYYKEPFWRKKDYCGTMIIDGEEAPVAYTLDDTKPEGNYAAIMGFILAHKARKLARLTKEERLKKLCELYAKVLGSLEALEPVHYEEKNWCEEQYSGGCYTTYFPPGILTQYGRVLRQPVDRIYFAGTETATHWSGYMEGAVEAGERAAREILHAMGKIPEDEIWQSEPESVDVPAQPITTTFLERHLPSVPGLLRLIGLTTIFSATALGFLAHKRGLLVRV
As to the kind of experiment: MAO-B fluorescence-based kynuramine assay. The format is biochemical. From the text:
MAOs catalyze the oxidative deamination of primary, secondary and tertiary amines. In order to monitor MAO enzymatic activities and/or their inhibition rate by inhibitor(s) of interest, a fluorescence-based (inhibitor)-screening assay was set up. 3-(2-Aminophenyl)-3-oxopropanamine (kynuramine dihydrobromide, Sigma Aldrich), a non fluorescent compound was chosen as a substrate. Kynuramine is a non-specific substrate for both MAO-A and MAO-B activities. While undergoing oxidative deamination by MAO activities, kynuramine is converted into 4-hydroxyquinoline (4-HQ), a resulting fluorescent product.
The monoamine oxidase activity was estimated by measuring the conversion of kynuramine into 4-hydroxyquinoline. Assays were conducted in 96-well black plates with clear bottom (Corning) in a final volume of 100 μL. […]
After leaving the enzyme(s) interacting with the inhibitor, KM of kynuramine was added to each reaction for MAO-B and MAO-A assay respectively, and the reaction was left for 1 hour at 37° C. in the dark. […] The conversion of kynuramine to 4-hydroxyquinoline, was monitored by fluorescence (excitation at 320 nm, emission at 360 nm) using a microplate reader (Infinite 200, Tecan). Arbitrary units were used to measure levels of fluorescence produced in the absence and/or in the presence of inhibitor.
The IC50 values of each inhibitor were calculated with GraphPad Prism Software.

The next data set relates to S100A8. Description: Microarray gene expression, hippocampus of SAMP8 mice (Example 3). It is filed as in vivo, mouse. As to conditions: for Hybridization signal sample_Cy5 S100A8 / log2 (sample/control) S100A8: SAMP8 female pool. As to the method:
Total RNA was extracted from samples using the RNeasy extraction kit (Qiagen). The quality and concentration of the RNA was analyzed using the Agilent 2100 bioanalyzer and NanoDrop™ ND-1000 (Thermo Scientific). Samples with RNA integrity number (RIN)<6.0 were discarded. Total RNA (0.5 μg) amplification and labelling with Cy3 or Cy5 was carried out using the Eberwein mRNA amplification procedure (Van Gelder et al, Proc Natl Acad Sci USA 1990, 87:1663-1667) employing the MessageAmp™ aRNA amplification kit from Ambion (Applied Biosystems) following the manufacturer's instructions with minor modifications. As hybridization controls, plant mRNAs were transcribed from a plasmid containing the Zea mays Xet (xyloglucan endo-transglycosylase) cDNA and from a plasmid containing the Zea mays Zmmyb42 cDNA, independently prepared Cy3 and Cy5 labelled aRNA from these two RNAs using the Eberwein mRNA amplification procedure (as disclosed in Cerdà et al, Gen Comp Endocrinol 2008, 156:470-481).
The Cy3- and Cy5-labelled cRNAs and spikes were combined and hybridized to the microarray described in Example 2.6 for 17 h at 60° C. using Agilent's gaskets G2534-60002, G2534A hybridization chambers and DNA Hybridization Oven G2545A, according to the manufacturer's instructions. More specifically, equal amounts of Cy3 and Cy5 labeled Xet aRNA as well as equal amounts of Cy3 and Cy5 labeled Zmmyb42 aRNA were spiked into each mixture hybridized to the array. Arrays were washed and raw data were obtained using Agilent's DNA Microarray Scanner G2505B and Feature Extraction software (v10.1). The raw fluorescence intensity data were processed using applicant's proprietary software, and consists in the following operations:
Data normalization was carried out by an improved version of the nonlinear Q-splines normalization method (Workman et al., Genome Biol 2002, 3(9):research0048.1-0048.16). Normalization results were presented graphically as MA plots, as first described by Dudoit et al (Dudoit et al, Statistica Sinica, 2002, 12:111-139). Each point corresponds to a probe of the DNA array. M values (vertical axis) are the log-differential expression ratios. A values (horizontal axis) are the log-intensities of the spots. M and A are calculated from the Cy5 and Cy3 intensity values as of each spot. The DNA Array data is normalized using an improved version of non-linear Q-Splines normalization described by Workman et al., Genome Biol 2002, 3(9):research0048.1-0048.16. This process is useful to correct the deviation of the M values from the statistical assumption that most of the spots have M=0 in MA plots. The method allows the adjustment of all M values to form a cloud centered at M=0 in all intensity ranges. The data used to calculate the normalization fitting curve is the totality of the raw measurement dataset, excluding the signals for the probes for the spiked-in plant RNA controls and negative controls. In order to be able to normalize properly the data among all the experiments, the probe-set must include an important group of genes that should have no change (M=0) in the experiment. The normalization function is then applied to all the data, including controls.
Normalized and log-transformed data were used to calculate log 2 (sample/control) and Fold Change (FC) values. No background subtraction was applied to the signal intensity values during data processing, permitting robust selection of differentially expressed genes with low expression levels at the cost of potential sub-estimation of change when intensity levels are close to the array background level.
The technical replicate analysis is the statistical processing of the microarray data. Replicates were calculated to measure oligo replicates on an array or between replicates of experiments on different arrays (i.e. hybridization of the same sample). […]

For another data set, the system named is SAMP8 mice. As to the kind of experiment: Platelet levels (hemogram) in SAMP8 mice. It is filed as in vivo, mouse. The procedure: It is known that LSD1 is implicated in normal hematopoiesis (SprDssel et al, Leukemia 2012, 26(9)2039-51). […] The mice were sacrificed and blood was collected in sodium citrate-containing tubes for hemogram analysis. Platelets levels were determined in a standard hematology analyzer (Abacus Junior Vet, from Diatron) following the manufacturer's instructions.

On to `NC(=O)CN[C@H]1C[C@@H]1c1ccc(OCc2ccccc2)cc1` (racemic) [Compound 3, 2-(((trans)-2-(4-(benzyloxy)phenyl)cyclopropyl)amino)acetamide], for which, in data set [1], the IC50 is 0.07 µM.

Consider `N[C@H]1CCN(CCN[C@H]2C[C@@H]2c2ccc(-c3cccc(C(F)(F)F)c3)cc2)C1` (racemic) [Compound 5, (S)-1-(2-(((trans)-2-(3′-(trifluoromethyl)-[1,1′-biphenyl]-4-yl)cyclopropyl)amino)ethyl)pyrrolidin-3-amine], for which, in data set [1], the IC50 was determined as 5.1 µM.

Regarding “(−) 5-((((trans)-2-(4-(benzyloxy)phenyl)cyclopropyl)amino)methyl)-1,3,4-oxadiazol-2-amine [Compound 1]”, the “Hybridization signal sample_Cy5 S100A8” value is on record as 77.0786 with S100A8 (HD 3.2 mg/kg/day) and 70.7119 in the data set on S100A8 (LD 0.96 mg/kg/day). The “log2 (sample/control) S100A8” value was −0.1813 in the data set with S100A8 (HD 3.2 mg/kg/day vs SAMP8 VEH) and −0.2255 in the data set with S100A8 (LD 0.96 mg/kg/day vs SAMP8 VEH). Also, the “S100A8 expression (microarray)” value in the data set on S100A8 (SAMP8 females, treatment vs vehicle) is “down-regulated”. Moreover, the platelet levels entry in the data set with SAMP8 mice (SAMP8, HD (3.2 mg/kg/day)) is reported as “significant reduction of platelet levels”; in the data set on SAMP8 mice (SAMP8, LD (0.96 mg/kg/day)), “no significant reduction of platelet levels”; in the data set with SAMP8 mice (SAMP8 males, 0.96 mg/kg/day, 16 weeks (4 months), vs vehicle-treated SAMP8, 0.96 mg/kg/day) it was “no statistically significant effects”; in the data set with SAMP8 mice (SAMP8 males, 0.96 mg/kg/day, 16 weeks (4 months), vs vehicle-treated SAMP8, listed as compound 1, 0.96 mg/kg/day), “no changes in the platelet blood count”.
